What is called DC50 is the concentration at which degradation of the target reaches its halfway point. The Dmax is the largest share of the target that was removed.

The results in this text go back to patent publication US20250064945A1 (Arvinas Operations, Inc., priority 2021, published 2025).

This assay has as its target T1, BRM (Homo sapiens, UniProt P51531).
T1 construct: In-Cell Western Screen of BRM Degradation in SW1573 Cells; endogenous in cells; host or cells: SW1573 cells
Briefly: Western blot / In-Cell Western screen of BRM degradation in SW1573 cells. The format is cell-based. As to conditions: overnight (18-20 hours) treatment; for Dmax: read-out: Dmax (%) (% degraded). On the procedure:
Western Blot Screen of BRM Degradation in SW1573 Cells
To assess BRM degradation (Dmax and DC50) cells were seeded at 8000/well in 96-well black/clear-bottom plates in 180 μL DMEM growth media (containing 1% pen-strep, 1% HEPES and 10% FBS) per well. Plates were incubated overnight to allow adhesion. The next morning cells were treated by adding 20 μL of 10× target compound concentration (1% DMSO) to appropriate wells and returned to incubator for overnight (18-20 hours). The final DMSO concentration was 0.1%.
For lysing, adherent cells were washed once with 100 μL of DPBS. Cells were lysed in 40 μL of 1× RIPA+HALT protease inhibitor on ice for 10 minutes and frozen until use at −80° C. Thawed lysates were cleaned by filtration in 1.2 µm filter plates, or alternatively, were spun clean at 2300 g at 4° C. for 30 minutes.
For blotting, for each Western sample 30 μL of lysate was added to 10 μL of 4×LDS sample buffer, then denatured at 95° C. for 5 minutes in the thermal cycler and placed on ice. Samples were loaded on 4-15% Tris/Glycine gels and run for 25 minutes at 250 constant volts in 1×Tris/Glycine buffer with 4 μL of ladder and 12 μL of each sample loaded for each blot. Protein was transferred from gels to NC with BioRad Turbo dry-transfer unit with the Turbo/midi default program. All blots were rinsed with ddH2O and blocked for 1 hour at room temperature in 5% BSA in TBST (0.1%) on rocker. Blots were exposed to primary antibody in 5% BSA in TBST (0.1%) overnight at 4° C. on rocker (1:1000 for BRM (Cell Signaling Tech. cat #11966) and 1:2000 for alpha-tubulin (Cell Signaling Tech. cat #3873), a control protein. Blot was washed with TBST (0.1%) three times for 5 minutes on rocker at room temperature. Secondary antibody was added, and blots were incubated on a room temperature rocker for 1 hour with 1:18,000 anti-rabbit-HRP and/or anti-mouse-HRP in 5% BSA in TBST (0.1%). Blots were washed three times in TBST (0.1%) for 5 minutes at room temperature on the rocker. Signal was developed with Femto Maximum Sensitivity substrate for 4 minutes and blots read on ChemiDoc™.
In-Cell Western Screen of BRM Degradation in SW1573 Cells
To assess BRM degradation (Dmax and DC50), cells were seeded at 8000/well in 96-well black/clear-bottom plates in 180 μL DMEM growth media (containing 1% pen-strep, 1% HEPES and 10% FBS) per well. Plates were incubated overnight to allow adhesion. The next morning cells were treated by adding 20 μL of 10× compound (1% DMSO) to appropriate wells and returned to incubator for overnight (18-20 hours). The final DMSO concentration was 0.1%.
For processing, the plates were removed from incubator, the media was removed, and immediately 200 μL of cold (4° C.) DPBS was added to all wells. DPBS was then removed, and 50 μL of 4% paraformaldehyde (PFA) in DPBS (4° C.) was added to all wells, and the plates were incubated at room temperature for 20 minutes. PFA was then removed, and 200 μL of TBS-T containing 0.5% Triton X-100 was added to all wells, and the plates were incubated at room temperature for 30 minutes. TBS-T containing 0.5% Triton X-100 was then removed, and 50 μL of Li-Cor blocking solution was added, and the plates were incubated at room temperature for a minimum of one hour. The blocking solution was removed, and 50 μL of Li-Cor blocking solution containing primary antibody cocktail was added (1:1000 for BRM (Cell Signaling Tech. cat #11966) and 1:2000 for alpha-tubulin (Sigma cat #T6074), a control protein. Plates were then placed in cold room until the next day.
The next day plates were washed three times with TBS-T, 200 μL per well. Fifty […] of secondary antibody cocktail in LI-COR blocking solution (anti-rabbit_800 nm and anti-mouse_680 nm) was added to all wells (diluted 1:5000). The plates were incubated at room temperature for at least one hour while protected from light. The plates were washed twice with TBS-T, 200 μL per well. […]
For orientation: In western blotting, separated proteins are transferred to a membrane and probed.

T1 sequence (P51531 whole entry): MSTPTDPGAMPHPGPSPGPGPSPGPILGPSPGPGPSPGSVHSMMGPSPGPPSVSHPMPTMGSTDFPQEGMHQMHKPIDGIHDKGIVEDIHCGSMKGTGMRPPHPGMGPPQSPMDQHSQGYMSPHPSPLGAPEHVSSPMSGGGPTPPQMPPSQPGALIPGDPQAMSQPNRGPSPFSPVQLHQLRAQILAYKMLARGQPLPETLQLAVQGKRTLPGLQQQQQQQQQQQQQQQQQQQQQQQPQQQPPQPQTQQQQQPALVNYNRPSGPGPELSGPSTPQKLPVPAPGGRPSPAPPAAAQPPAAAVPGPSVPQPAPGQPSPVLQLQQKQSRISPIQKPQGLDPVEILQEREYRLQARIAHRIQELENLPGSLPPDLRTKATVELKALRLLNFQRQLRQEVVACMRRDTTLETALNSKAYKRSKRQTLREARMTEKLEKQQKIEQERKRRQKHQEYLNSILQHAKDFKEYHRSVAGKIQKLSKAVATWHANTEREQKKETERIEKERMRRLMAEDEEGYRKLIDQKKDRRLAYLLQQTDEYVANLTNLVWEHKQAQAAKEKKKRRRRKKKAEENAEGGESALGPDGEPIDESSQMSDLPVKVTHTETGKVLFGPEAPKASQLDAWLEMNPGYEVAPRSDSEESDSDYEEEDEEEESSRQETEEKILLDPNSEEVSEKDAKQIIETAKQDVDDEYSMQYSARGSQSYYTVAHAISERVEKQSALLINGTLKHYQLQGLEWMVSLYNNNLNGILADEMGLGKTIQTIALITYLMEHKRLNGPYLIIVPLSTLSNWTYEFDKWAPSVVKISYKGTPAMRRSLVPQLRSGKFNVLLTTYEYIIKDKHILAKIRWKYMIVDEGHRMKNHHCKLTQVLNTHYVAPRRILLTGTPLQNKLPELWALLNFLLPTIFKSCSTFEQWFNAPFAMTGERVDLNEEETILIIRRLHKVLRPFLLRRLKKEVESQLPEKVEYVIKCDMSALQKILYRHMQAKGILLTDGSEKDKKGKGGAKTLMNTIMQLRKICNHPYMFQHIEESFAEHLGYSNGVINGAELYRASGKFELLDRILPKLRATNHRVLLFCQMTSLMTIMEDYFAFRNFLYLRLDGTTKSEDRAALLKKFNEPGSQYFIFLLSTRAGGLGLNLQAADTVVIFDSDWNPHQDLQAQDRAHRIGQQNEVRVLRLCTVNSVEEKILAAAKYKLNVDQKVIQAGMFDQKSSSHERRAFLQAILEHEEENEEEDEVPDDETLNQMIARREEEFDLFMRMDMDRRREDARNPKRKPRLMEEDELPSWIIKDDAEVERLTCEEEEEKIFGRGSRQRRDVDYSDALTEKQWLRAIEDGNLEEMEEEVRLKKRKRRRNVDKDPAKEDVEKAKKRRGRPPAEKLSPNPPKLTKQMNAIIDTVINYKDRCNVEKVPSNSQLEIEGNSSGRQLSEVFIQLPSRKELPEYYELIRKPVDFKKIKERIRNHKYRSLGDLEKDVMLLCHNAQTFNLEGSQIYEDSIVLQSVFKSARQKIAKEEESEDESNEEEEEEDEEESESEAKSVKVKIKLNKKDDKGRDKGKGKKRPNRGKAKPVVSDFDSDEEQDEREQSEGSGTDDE

With `Cc1ncsc1-c1ccc([C@H](C)NC(=O)[C@@H]2C[C@@H](O)CN2C(=O)[C@@H](c2cc(N3CCC(CN4CCC(O[C@H]5C[C@H](N6CCC(CN7CC8(C7)CN(c7cc(-c9ccccc9O)nnc7N)CCN8C)CC6)C5)CC4)CC3)no2)C(C)C)cc1` [Compound 27, (2S,4R)-4-hydroxy-N-[(1S)-1-[4-(4-methyl-1,3-thiazol-5-yl)phenyl]ethyl]-1-[(2R)-3-methyl-2-{3-[4-({4-[(1r,3r)-3-[4-({8-[3-amino-6-(2-hydroxyphenyl)pyridazin-4-yl]-5-methyl-2,5,8-triazaspiro[3.5]nonan-2-yl}methyl)piperidin-1-yl]cyclobutoxy]piperidin-1-yl}methyl)piperidin-1-yl]-1,2-oxazol-5-yl}butanoyl]pyrrolidine-2-carboxamide], the DC50 lay within 2.5 to 10 nM and the Dmax is > 75%.

As for `CC(C)[C@@H](C(=O)N1C[C@H](O)C[C@H]1C(=O)N[C@@H](C)c1ccc(-c2ccnn2C)cc1)c1cc(N2CCC(CN3CCC(O[C@H]4C[C@H](Cn5cc(-c6cn7cc(-c8ccccc8O)nc7nc6N)cn5)C4)CC3)CC2)no1` [Compound 42, (2S,4R)-4-hydroxy-N-[(1S)-1-[4-(1-methyl-1H-pyrazol-5-yl)phenyl]ethyl]-1-[(2R)-3-methyl-2-{3-[4-({4-[(1r,3r)-3-({4-[7-amino-2-(2-hydroxyphenyl)imidazo[1,2-a]pyrimidin-6-yl]-1H-pyrazol-1-yl}methyl)cyclobutoxy]piperidin-1-yl}methyl)piperidin-1-yl]-1,2-oxazol-5-yl}butanoyl]pyrrolidine-2-carboxamide], the DC50 was < 2.5 nM and the Dmax was > 75%.

As for `CC(C)[C@@H](C(=O)N1C[C@H](O)C[C@H]1C(=O)N[C@@H](C)c1ccc(-c2ccnn2C)cc1)c1cc(N2CCC(CN3CCC(O[C@H]4C[C@H](n5cc(-c6cn7cc(-c8ccccc8O)nc7nc6N)cn5)C4)CC3)CC2)no1` [Compound 41, (2S,4R)-4-hydroxy-N-[(1S)-1-[4-(1-methyl-1H-pyrazol-5-yl)phenyl]ethyl]-1-[(2R)-3-methyl-2-{3-[4-({4-[(1r,3r)-3-{4-[7-amino-2-(2-hydroxyphenyl)imidazo[1,2-a]pyrimidin-6-yl]-1H-pyrazol-1-yl}cyclobutoxy]piperidin-1-yl}methyl)piperidin-1-yl]-1,2-oxazol-5-yl}butanoyl]pyrrolidine-2-carboxamide], the DC50 is < 2.5 nM and the Dmax is > 75%.

In the case of `Cc1ncsc1-c1ccc([C@H](C)NC(=O)[C@@H]2C[C@@H](O)CN2C(=O)[C@H](c2cc(N3CCC(O[C@H]4C[C@H](OCC#Cc5cn6cc(-c7ccccc7O)nc6nc5N)C4)CC3)no2)C(C)C)cc1` [Compound 34, (2S,4R)-4-hydroxy-N-[(1S)-1-[4-(4-methyl-1,3-thiazol-5-yl)phenyl]ethyl]-1-[(2S)-3-methyl-2-(3-{4-[(1r,3r)-3-({3-[7-amino-2-(2-hydroxyphenyl)imidazo[1,2-a]pyrimidin-6-yl]prop-2-yn-1-yl}oxy)cyclobutoxy]piperidin-1-yl}-1,2-oxazol-5-yl)butanoyl]pyrrolidine-2-carboxamide], the DC50 is ≥ 30 nM.

In the case of `CC(C)[C@@H](C(=O)N1C[C@H](O)C[C@H]1C(=O)N[C@@H](C)c1ccc(-c2ccnn2C)cc1)c1cc(N2CCC(CN3CCC(O[C@H]4C[C@H](N5CCC(C/C=C/c6cn7cc(-c8ccccc8O)nc7nc6N)CC5)C4)CC3)CC2)no1` [Compound 44, (2S,4R)-4-hydroxy-N-[(1S)-1-[4-(1-methyl-1H-pyrazol-5-yl)phenyl]ethyl]-1-[(2R)-3-methyl-2-{3-[4-({4-[(1r,3r)-3-{4-[(2E)-3-[7-amino-2-(2-hydroxyphenyl)imidazo[1,2-a]pyrimidin-6-yl]prop-2-en-1-yl]piperidin-1-yl}cyclobutoxy]piperidin-1-yl}methyl)piperidin-1-yl]-1,2-oxazol-5-yl}butanoyl]pyrrolidine-2-carboxamide], the DC50 was < 2.5 nM and the Dmax is > 75%.
